# Columns and labels:
# [1] = target: T1, human vanilloid-1 (hVR-1) in hVR-1-HEK293 cell line (Homo sapiens, UniProt Q8NER1); assay: Inhibitory effect on calcium influx via a vanilloid receptor (capsaicin-stimulated, Fluo-3/AM); assay type: cell-based; conditions: hVR-1-HEK293 cells, 1 μM of capsaicin, compounds 0.015˜2000 nM; read-out: I.A. (inhibitory activity), IC50 on intracellular calcium influx
# T1 construct: expressed in transfected cells; host or cells: HEK293 Tet-on strain, doxycycline-induced
# T1 sequence (Q8NER1 whole entry): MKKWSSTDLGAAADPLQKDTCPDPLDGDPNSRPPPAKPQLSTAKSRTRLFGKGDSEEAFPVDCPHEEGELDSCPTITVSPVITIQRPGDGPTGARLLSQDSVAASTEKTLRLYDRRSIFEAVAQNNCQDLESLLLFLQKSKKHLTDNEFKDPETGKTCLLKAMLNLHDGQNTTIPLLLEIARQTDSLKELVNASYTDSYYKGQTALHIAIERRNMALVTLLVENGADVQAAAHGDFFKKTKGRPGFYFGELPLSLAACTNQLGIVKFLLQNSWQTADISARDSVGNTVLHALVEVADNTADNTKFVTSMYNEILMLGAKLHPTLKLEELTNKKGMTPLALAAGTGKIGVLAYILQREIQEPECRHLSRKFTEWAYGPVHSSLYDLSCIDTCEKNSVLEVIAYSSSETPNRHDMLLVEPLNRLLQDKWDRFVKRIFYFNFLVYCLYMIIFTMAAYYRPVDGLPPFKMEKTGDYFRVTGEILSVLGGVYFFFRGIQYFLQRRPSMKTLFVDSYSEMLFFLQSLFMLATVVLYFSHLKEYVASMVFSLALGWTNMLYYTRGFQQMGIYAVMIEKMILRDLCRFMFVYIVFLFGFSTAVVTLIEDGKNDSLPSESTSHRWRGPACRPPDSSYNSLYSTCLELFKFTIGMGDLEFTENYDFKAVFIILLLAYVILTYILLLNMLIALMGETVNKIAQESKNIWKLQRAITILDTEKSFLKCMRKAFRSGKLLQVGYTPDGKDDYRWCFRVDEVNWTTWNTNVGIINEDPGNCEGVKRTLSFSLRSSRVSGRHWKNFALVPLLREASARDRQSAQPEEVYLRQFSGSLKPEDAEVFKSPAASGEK
# Experimental: The cell line can modulate the expression of VR-1, depending on whether doxycycline, a derivative of tetracycline, is present or not. […] Specifically, hVR-1-HEK293 cells were cultured in a T75 flask to about 80% confluency, separated from the flask by treating with trypsin solution, and then collected by centrifugation. The cells were suspended in a medium containing 1 μg/mL of doxycycline, and the resulting suspension was diluted to a concentration of 2˜4×10^5 cells/mL […], of the cell suspension was placed in each well of a 96-well black plate. The cells were cultured in 5% CO2 incubator at 37° C. for 2 days, and used for the following procedure. […] The cells prepared in 1) above were cultured at 37° C. for 90 min in a solution containing Fluo-3/AM, a fluorescent dye, as a calcium indicator so that the fluorescent dye was permeated into the cells. […] In order to stimulate calcium influx through a vanilloid receptor, the cells were treated with 1 μM of capsaicin. […] The obtained data were input to the Hill equation represented by the following formula I and the values were analyzed: Intracellular calcium influx= [(fluorescent intensity of experimental group−fluorescent intensity of background)/(fluorescent intensity of positive control−fluorescent intensity of background)]*100 [Formula I] The inhibitory activities were evaluated from the obtained intracellular calcium influx values according to the following criteria.
# ICR male mice = assay: Phenyl-p-quinone (PBQ)-induced writhing experiment using mice; assay type: in vivo; conditions: orally administered, PBQ (0.02%) intraperitoneally after 1 hour, writhing counted for 10 min
# Experimental: In order to evaluate the effect on pain of the compounds prepared in the Examples, behaviors such as twisting or writhing of body resulted from pain were verified by the phenyl-p-quinone (PBQ)-induced writhing experiment using mice. 5 week-old ICR male mice were used as experimental animals and PBQ (0.02%), as a chemical stimulator. The suspensions of 20 mg of the compounds of the present invention and an excipient such as Na—CMC (sodium carboxymethyl cellulose) in 10 mL of saline were used as test compounds. The test compounds were orally administered to the mice and after 1 hour, PBQ was intraperitoneally administrated in an amount of 10 mL per kg of body weight. Also, as a control group, equivalent amounts of BCTC were administered. The writhing number of each mouse was measured for 10 min starting from 5 min after the administration, and the analgesic effect was verified by counting the reduced number compared to the control group administered with only excipient and calculating the % inhibitory rate according to the following Formula 2. % inhibition rate=(writhing # of control group−writhing # of test group)/writhing # of control group×100 [Formula 2]
SMILES,IC50 [1] [nM],"I.A. (inhibitory activity), % inhibition rate of writhing (ICR male mice)"
"FC(F)(F)c1ccc2nc(-c3cccc4c3OCCN4c3ncc(Cl)cc3Cl)[nH]c2c1 [Example 18, 4-(3,5-dichloro-pyridin-2-yl)-8-(6-trifluoromethyl-1H-benzimidazol-2-yl)-3,4-dihydro-2H-benzo[1,4]oxazine]",20 to 100,+ (<20%)
"Cc1ccc(N2c3cccc(-c4nc5c(C(F)(F)F)cc(C(F)(F)F)cc5[nH]4)c3OC[C@@H]2CO)nc1 [Example 40, [(S)-8-(4,6-bis-trifluoromethyl-1H-benzimidazol-2-yl)-4-(5-methyl-pyridin-2-yl)-3,4-dihydro-2H-benzo[1,4]oxazin-3-yl]-methanol]",20 to 100,++++ (>80%)
"Cc1ccc(N2c3cccc(-c4nc5ccc(C(F)(F)F)cc5[nH]4)c3OC[C@@H]2CO)nc1 [Example 35, [(S)-4-(5-methyl-pyridin-2-yl)-8-(6-trifluoromethyl-1H-benzimidazol-2-yl)-3,4-dihydro-2H-benzo[1,4]oxazin-3-yl]-methanol]",< 20,+++ (51-80%)
"FC(F)(F)c1ccc2nc(-c3cccc4c3OCCN4c3ccc(Cl)cn3)[nH]c2c1 [Example 20, 4-(5-chloro-pyridin-2-yl)-8-(6-trifluoromethyl-1H-benzimidazol-2-yl)-3,4-dihydro-2H-benzo[1,4]oxazine]",20 to 100,++ (20˜50%)
"Cc1ccc(N2CCOc3c(-c4nc5ccc(C(F)(F)F)cc5[nH]4)cccc32)nc1 [Example 25, 4-(5-methyl-pyridin-2-yl)-8-(6-trifluoromethyl-1H-benzimidazol-2-yl)-3,4-dihydro-2H-benzo[1,4]oxazine]",20 to 100,+ (<20%)
"Cc1ccc(N2c3cccc(-c4nc5ccccc5[nH]4)c3OC[C@@H]2CO)nc1 [Example 53, [(S)-8-(1H-benzimidazol-2-yl)-4-(5-methyl-pyridin-2-yl)-3,4-dihydro-2H-benzo[1,4]oxazin-3-yl]-methanol]",< 20,+ (<20%)
"Cc1ccc(N2c3cccc(-c4nc5ccc(C(C)(C)C)cc5[nH]4)c3OC[C@@H]2CO)nc1 [Example 34, [(S)-8-(6-tert-butyl-1H-benzimidazol-2-yl)-4-(5-methyl-pyridin-2-yl)-3,4-dihydro-2H-benzo[1,4]oxazin-3-yl]-methanol]",< 20,+ (<20%)
"Cc1ccc(N2c3cccc(-c4nc5c(F)cc(Br)cc5[nH]4)c3OC[C@@H]2CO)nc1 [Example 43, [(S)-8-(6-bromo-4-fluoro-1H-benzimidazol-2-yl)-4-(5-methyl-pyridin-2-yl)-3,4-dihydro-2H-benzo[1,4]oxazin-3-yl]-methanol]",< 20,++ (20˜50%)
"Cc1ccc(N2c3cccc(-c4nc5c(C)c(C)ccc5[nH]4)c3OC[C@@H]2CO)nc1 [Example 52, [(S)-8-(4,5-dimethyl-1H-benzimidazol-2-yl)-4-(5-methyl-pyridin-2-yl)-3,4-dihydro-2H-benzo[1,4]oxazin-3-yl]-methanol]",< 20,++ (20˜50%)
"Cc1ccc(N2c3cccc(-c4nc5cc(C)ccc5[nH]4)c3OC[C@@H]2CO)nc1 [Example 51, [(S)-8-(5-methyl-1H-benzimidazol-2-yl)-4-(5-methyl-pyridin-2-yl)-3,4-dihydro-2H-benzo[1,4]oxazin-3-yl]-methanol]",< 20,+ (<20%)
"Cc1ccc(N2c3cccc(-c4nc5ccc(OC(F)(F)F)cc5[nH]4)c3OC[C@@H]2CO)nc1 [Example 47, [(S)-4-(5-methyl-pyridin-2-yl)-8-(6-trifluoromethoxy-1H-benzimidazol-2-yl)-3,4-dihydro-2H-benzo[1,4]oxazin-3-yl]-methanol]",< 20,++ (20˜50%)
"Cc1ccc(N2c3cccc(-c4nc5c(C)cc(Br)cc5[nH]4)c3OC[C@@H]2CO)nc1 [Example 46, [(S)-8-(6-bromo-4-methyl-1H-benzimidazol-2-yl)-4-(5-methyl-pyridin-2-yl)-3,4-dihydro-2H-benzo[1,4]oxazin-3-yl]-methanol]",< 20,++ (20˜50%)

# Now from value to compound, other results behind:
IC50 [1] [nM],SMILES,"I.A. (inhibitory activity), % inhibition rate of writhing (ICR male mice)"
< 20,"C=Cc1ccc(N2c3cccc(-c4nc5c(C)cc(Br)cc5[nH]4)c3OC[C@@H]2CO)nc1 [Example 66, [(S)-8-(6-bromo-4-methyl-1H-benzimidazol-2-yl)-4-(5-vinyl-pyridin-2-yl)-3,4-dihydro-2H-benzo[1,4]oxazin-3-yl]-methanol]",+++ (51-80%)
20 to 100,"CCc1ccc(N2c3cccc(-c4nc5c(F)cc(Br)cc5[nH]4)c3OC[C@@H]2CO)nc1 [Example 85, [(S)-8-(6-bromo-4-fluoro-1H-benzimidazol-2-yl)-4-(5-ethyl-pyridin-2-yl)-3,4-dihydro-2H-benzo[1,4]oxazin-3-yl]-methanol]",+++ (51-80%)
20 to 100,"COC[C@H]1COc2c(-c3nc4ccc(C#N)cc4[nH]3)cccc2N1c1ccc(C)cn1 [Example 101, 2-[(S)-3-methoxymethyl-4-(5-methyl-pyridin-2-yl)-3,4-dihydro-2H-benzo[1,4]oxazin-8-yl]-3H-benzimidazol-5-carbonitrile]",+++ (51-80%)
< 20,"COC[C@H]1COc2c(-c3nc4c(Br)cc(Br)cc4[nH]3)cccc2N1c1ccc(C)cn1 [Example 97, (S)-8-(4,6-dibromo-1H-benzimidazol-2-yl)-3-methoxymethyl-4-(5-methyl-pyridin-2-yl)-3,4-dihydro-2H-benzo[1,4]oxazine]",++ (20˜50%)
< 20,"COC[C@H]1COc2c(-c3nc4cc(Cl)c(Cl)cc4[nH]3)cccc2N1c1ccc(C)cn1 [Example 95, (S)-8-(5,6-dichloro-1H-benzimidazol-2-yl)-3-methoxymethyl-4-(5-methyl-pyridin-2-yl)-3,4-dihydro-2H-benzo[1,4]oxazine]",+++ (51-80%)
< 20,"COC[C@H]1COc2c(-c3nc4cc(Cl)c(F)cc4[nH]3)cccc2N1c1ccc(C)cn1 [Example 103, (S)-8-(5-chloro-6-fluoro-1H-benzimidazol-2-yl)-3-methoxymethyl-4-(5-methyl-pyridin-2-yl)-3,4-dihydro-2H-benzo[1,4]oxazine]",+++ (51-80%)
20 to 100,"CCc1ccc(N2c3cccc(-c4nc5ccc(OC(F)(F)F)cc5[nH]4)c3OC[C@@H]2CO)nc1 [Example 82, [(S)-4-(5-ethyl-pyridin-2-yl)-8-(6-trifluoromethoxy-1H-benzimidazol-2-yl)-3,4-dihydro-2H-benzo[1,4]oxazin-3-yl]-methanol]",+++ (51-80%)
20 to 100,"COC[C@H]1COc2c(-c3nc4ccc(OC(F)(F)F)cc4[nH]3)cccc2N1c1ccc(C)cn1 [Example 99, (S)-3-methoxymethyl-4-(5-methyl-pyridin-2-yl)-8-(6-trifluoromethoxy-1H-benzimidazol-2-yl)-3,4-dihydro-2H-benzo[1,4]oxazine]",++++ (>80%)
20 to 100,"C=Cc1ccc(N2c3cccc(-c4nc5cc(F)c(F)cc5[nH]4)c3OC[C@@H]2CO)nc1 [Example 69, [(S)-8-(5,6-difluoro-1H-benzimidazol-2-yl)-4-(5-vinyl-pyridin-2-yl)-3,4-dihydro-2H-benzo[1,4]oxazin-3-yl]-methanol]",+++ (51-80%)
< 20,"C=Cc1ccc(N2c3cccc(-c4nc5ccc(Cl)cc5[nH]4)c3OC[C@@H]2CO)nc1 [Example 59, [(S)-8-(6-chloro-1H-benzimidazol-2-yl)-4-(5-vinyl-pyridin-2-yl)-3,4-dihydro-2H-benzo[1,4]oxazin-3-yl]-methanol]",+++ (51-80%)
< 20,"C=Cc1ccc(N2c3cccc(-c4nc5cc(Cl)c(Cl)cc5[nH]4)c3OC[C@@H]2CO)nc1 [Example 68, [(S)-8-(5,6-dichloro-1H-benzimidazol-2-yl)-4-(5-vinyl-pyridin-2-yl)-3,4-dihydro-2H-benzo[1,4]oxazin-3-yl]-methanol]",+++ (51-80%)

# Reference: US8362012B2, “Benzoxazine benzimidazole derivative, a pharmaceutical composition comprising the same, and a use thereof” (Daewoong Pharmaceutical Co., Ltd., priority 2008, dated 2013)
